According to publication PMC8699473, “An Easily Expandable Multi-Drug LC-MS Assay for the Simultaneous Quantification of 57 Oral Antitumor Drugs in Human Plasma” (Cancers, 2021):

Assay: Long-term stability in spiked pooled human plasma

O=C(c1ccc(F)c(F)c1Nc1ccc(I)cc1F)N1CC(O)([C@@H]2CCCCN2)C1 [Cobimetinib]
Long-term stability, 1 month, -20°C Accuracy [%] (validation standard 2xLLOV): 100.8%
Long-term stability, 1 month, -80°C Accuracy [%] (validation standard 2xLLOV): 93.9%
Long-term stability, 2 month, -20°C Accuracy [%] (validation standard 2xLLOV): 98.0%
Long-term stability, 2 month, -80°C Accuracy [%] (validation standard 2xLLOV): 103.4%
Long-term stability, 3 month, -20°C Accuracy [%] (validation standard 2xLLOV): 99.0%
Long-term stability, 3 month, -80°C Accuracy [%] (validation standard 2xLLOV): 97.6%
Long-term stability, 6 weeks, 4°C, without daylight Accuracy [%] (validation standard 2xLLOV): 94.8%
Long-term stability, 1 month, -20°C Accuracy [%] (validation standard LLOV): 101.1%
Long-term stability, 1 month, -80°C Accuracy [%] (validation standard LLOV): 99.0%
Long-term stability, 2 month, -20°C Accuracy [%] (validation standard LLOV): 99.0%
Long-term stability, 2 month, -80°C Accuracy [%] (validation standard LLOV): 97.9%
Long-term stability, 3 month, -20°C Accuracy [%] (validation standard LLOV): 101.3%
Long-term stability, 3 month, -80°C Accuracy [%] (validation standard LLOV): 100.3%
Long-term stability, 6 weeks, 4°C, without daylight Accuracy [%] (validation standard LLOV): 94.5%
Long-term stability, 1 month, -20°C Accuracy [%] (validation standard MOV): 98.9%
Long-term stability, 1 month, -80°C Accuracy [%] (validation standard MOV): 96.8%
Long-term stability, 2 month, -20°C Accuracy [%] (validation standard MOV): 100.8%
Long-term stability, 2 month, -80°C Accuracy [%] (validation standard MOV): 103.3%
Long-term stability, 3 month, -20°C Accuracy [%] (validation standard MOV): 99.2%
Long-term stability, 3 month, -80°C Accuracy [%] (validation standard MOV): 98.4%
Long-term stability, 6 weeks, 4°C, without daylight Accuracy [%] (validation standard MOV): 108.3%
Long-term stability, 1 month, -20°C Accuracy [%] (validation standard ULOV): 100.6%
Long-term stability, 1 month, -80°C Accuracy [%] (validation standard ULOV): 97.3%
Long-term stability, 2 month, -20°C Accuracy [%] (validation standard ULOV): 104.5%
Long-term stability, 2 month, -80°C Accuracy [%] (validation standard ULOV): 103.6%
Long-term stability, 3 month, -20°C Accuracy [%] (validation standard ULOV): 100.6%
Long-term stability, 3 month, -80°C Accuracy [%] (validation standard ULOV): 98.3%
Long-term stability, 6 weeks, 4°C, without daylight Accuracy [%] (validation standard ULOV): 102.4%

CNC(=O)c1cc(Oc2ccc(NC(=O)Nc3ccc(Cl)c(C(F)(F)F)c3)c(F)c2)ccn1 [Regorafenib]
Long-term stability, 1 month, -20°C Accuracy [%] (validation standard 2xLLOV): 101.2%
Long-term stability, 1 month, -80°C Accuracy [%] (validation standard 2xLLOV): 104.0%
Long-term stability, 2 month, -20°C Accuracy [%] (validation standard 2xLLOV): 105.6%
Long-term stability, 2 month, -80°C Accuracy [%] (validation standard 2xLLOV): 104.3%
Long-term stability, 3 month, -20°C Accuracy [%] (validation standard 2xLLOV): 90.7%
Long-term stability, 3 month, -80°C Accuracy [%] (validation standard 2xLLOV): 103.7%
Long-term stability, 6 weeks, 4°C, without daylight Accuracy [%] (validation standard 2xLLOV): 80.6%
Long-term stability, 1 month, -20°C Accuracy [%] (validation standard LLOV): 105.4%
Long-term stability, 1 month, -80°C Accuracy [%] (validation standard LLOV): 102.9%
Long-term stability, 2 month, -20°C Accuracy [%] (validation standard LLOV): 106.3%
Long-term stability, 2 month, -80°C Accuracy [%] (validation standard LLOV): 104.7%
Long-term stability, 3 month, -20°C Accuracy [%] (validation standard LLOV): 94.0%
Long-term stability, 3 month, -80°C Accuracy [%] (validation standard LLOV): 105.1%
Long-term stability, 6 weeks, 4°C, without daylight Accuracy [%] (validation standard LLOV): 79.3%
Long-term stability, 1 month, -20°C Accuracy [%] (validation standard MOV): 101.6%
Long-term stability, 1 month, -80°C Accuracy [%] (validation standard MOV): 106.3%
Long-term stability, 2 month, -20°C Accuracy [%] (validation standard MOV): 105.8%
Long-term stability, 2 month, -80°C Accuracy [%] (validation standard MOV): 112.2%
Long-term stability, 3 month, -20°C Accuracy [%] (validation standard MOV): 97.1%
Long-term stability, 3 month, -80°C Accuracy [%] (validation standard MOV): 100.4%
Long-term stability, 6 weeks, 4°C, without daylight Accuracy [%] (validation standard MOV): 101.0%
Long-term stability, 1 month, -20°C Accuracy [%] (validation standard ULOV): 104.7%
Long-term stability, 1 month, -80°C Accuracy [%] (validation standard ULOV): 103.8%
Long-term stability, 2 month, -20°C Accuracy [%] (validation standard ULOV): 108.5%
Long-term stability, 2 month, -80°C Accuracy [%] (validation standard ULOV): 107.0%
Long-term stability, 3 month, -20°C Accuracy [%] (validation standard ULOV): 92.9%
Long-term stability, 3 month, -80°C Accuracy [%] (validation standard ULOV): 103.1%
Long-term stability, 6 weeks, 4°C, without daylight Accuracy [%] (validation standard ULOV): 95.5%

CCC1=C[C@@H]2CN(C1)Cc1c([nH]c3ccccc13)[C@@](C(=O)OC)(c1cc3c(cc1OC)N(C)[C@H]1[C@@](O)(C(=O)OC)[C@H](OC(C)=O)[C@]4(CC)C=CCN5CC[C@]31[C@@H]54)C2 [Vinorelbine]
Long-term stability, 1 month, -20°C Accuracy [%] (validation standard 2xLLOV): 97.3%
Long-term stability, 1 month, -80°C Accuracy [%] (validation standard 2xLLOV): 110.2%
Long-term stability, 2 month, -20°C Accuracy [%] (validation standard 2xLLOV): 108.5%
Long-term stability, 2 month, -80°C Accuracy [%] (validation standard 2xLLOV): 94.1%
Long-term stability, 3 month, -20°C Accuracy [%] (validation standard 2xLLOV): 98.4%
Long-term stability, 3 month, -80°C Accuracy [%] (validation standard 2xLLOV): 97.8%
Long-term stability, 6 weeks, 4°C, without daylight Accuracy [%] (validation standard 2xLLOV): 75.3%
Long-term stability, 1 month, -20°C Accuracy [%] (validation standard LLOV): 118.3%
Long-term stability, 1 month, -80°C Accuracy [%] (validation standard LLOV): 110.0%
Long-term stability, 2 month, -20°C Accuracy [%] (validation standard LLOV): 98.1%
Long-term stability, 2 month, -80°C Accuracy [%] (validation standard LLOV): 109.4%
Long-term stability, 3 month, -20°C Accuracy [%] (validation standard LLOV): 101.7%
Long-term stability, 3 month, -80°C Accuracy [%] (validation standard LLOV): 118.7%
Long-term stability, 6 weeks, 4°C, without daylight Accuracy [%] (validation standard LLOV): 85.9%
Long-term stability, 1 month, -20°C Accuracy [%] (validation standard MOV): 90.2%
Long-term stability, 1 month, -80°C Accuracy [%] (validation standard MOV): 88.9%
Long-term stability, 2 month, -20°C Accuracy [%] (validation standard MOV): 89.2%
Long-term stability, 2 month, -80°C Accuracy [%] (validation standard MOV): 92.4%
Long-term stability, 3 month, -20°C Accuracy [%] (validation standard MOV): 98.2%
Long-term stability, 3 month, -80°C Accuracy [%] (validation standard MOV): 93.5%
Long-term stability, 6 weeks, 4°C, without daylight Accuracy [%] (validation standard MOV): 73.1%
Long-term stability, 1 month, -20°C Accuracy [%] (validation standard ULOV): 90.4%
Long-term stability, 1 month, -80°C Accuracy [%] (validation standard ULOV): 92.0%
Long-term stability, 2 month, -20°C Accuracy [%] (validation standard ULOV): 87.6%
Long-term stability, 2 month, -80°C Accuracy [%] (validation standard ULOV): 99.6%
Long-term stability, 3 month, -20°C Accuracy [%] (validation standard ULOV): 92.2%
Long-term stability, 3 month, -80°C Accuracy [%] (validation standard ULOV): 98.1%
Long-term stability, 6 weeks, 4°C, without daylight Accuracy [%] (validation standard ULOV): 56.9%

Cc1cn(-c2cc(NC(=O)c3ccc(C)c(Nc4nccc(-c5cccnc5)n4)c3)cc(C(F)(F)F)c2)cn1 [Nilotinib]
Long-term stability, 1 month, -20°C Accuracy [%] (validation standard 2xLLOV): 95.1%
Long-term stability, 1 month, -80°C Accuracy [%] (validation standard 2xLLOV): 89.2%
Long-term stability, 2 month, -20°C Accuracy [%] (validation standard 2xLLOV): 96.9%
Long-term stability, 2 month, -80°C Accuracy [%] (validation standard 2xLLOV): 99.7%
Long-term stability, 3 month, -20°C Accuracy [%] (validation standard 2xLLOV): 91.6%
Long-term stability, 3 month, -80°C Accuracy [%] (validation standard 2xLLOV): 92.2%
Long-term stability, 6 weeks, 4°C, without daylight Accuracy [%] (validation standard 2xLLOV): 103.4%
Long-term stability, 1 month, -20°C Accuracy [%] (validation standard LLOV): 91.9%
Long-term stability, 1 month, -80°C Accuracy [%] (validation standard LLOV): 89.8%
Long-term stability, 2 month, -20°C Accuracy [%] (validation standard LLOV): 93.3%
Long-term stability, 2 month, -80°C Accuracy [%] (validation standard LLOV): 97.4%
Long-term stability, 3 month, -20°C Accuracy [%] (validation standard LLOV): 90.5%
Long-term stability, 3 month, -80°C Accuracy [%] (validation standard LLOV): 93.1%
Long-term stability, 6 weeks, 4°C, without daylight Accuracy [%] (validation standard LLOV): 102.0%
Long-term stability, 1 month, -20°C Accuracy [%] (validation standard MOV): 95.6%
Long-term stability, 1 month, -80°C Accuracy [%] (validation standard MOV): 91.9%
Long-term stability, 2 month, -20°C Accuracy [%] (validation standard MOV): 99.1%
Long-term stability, 2 month, -80°C Accuracy [%] (validation standard MOV): 98.0%
Long-term stability, 3 month, -20°C Accuracy [%] (validation standard MOV): 96.9%
Long-term stability, 3 month, -80°C Accuracy [%] (validation standard MOV): 93.1%
Long-term stability, 6 weeks, 4°C, without daylight Accuracy [%] (validation standard MOV): 101.7%
Long-term stability, 1 month, -20°C Accuracy [%] (validation standard ULOV): 94.2%
Long-term stability, 1 month, -80°C Accuracy [%] (validation standard ULOV): 90.9%
Long-term stability, 2 month, -20°C Accuracy [%] (validation standard ULOV): 97.5%
Long-term stability, 2 month, -80°C Accuracy [%] (validation standard ULOV): 97.0%
Long-term stability, 3 month, -20°C Accuracy [%] (validation standard ULOV): 93.1%
Long-term stability, 3 month, -80°C Accuracy [%] (validation standard ULOV): 91.6%
Long-term stability, 6 weeks, 4°C, without daylight Accuracy [%] (validation standard ULOV): 98.0%
